Experimental data taken from patent US20160008380A1, “TARGETING GLUTAMINE METABOLISM IN BRAIN TUMORS” (THE JOHNS HOPKINS UNIVERSITY, priority 2013, published 2016).
Entries after “also recorded” stand apart in the source; their conditions may differ.

Assays:
[1] = tested on: MYC transduced hindbrain derived human neural stem cell PNET models; experiment: BrdU proliferation assay, PNET models; format: cell-based; conditions: FIG. 10B
Procedure: (§1) FIG. 10 A: Acivicin suppresses the growth of MYC containing human neural stem cell PNET models. Graph comparing percent BrdU positivity in mock treated (blue) and with 10 uM acivicin (red) treated cells. […] FIG. 10 B: Acivicin suppresses the growth of MYC containing human neural stem cell PNET models. The graph compares percent BrdU positivity in mock treated (blue) and with 10 uM DON (red) treated cells.
(§2) For measurement of proliferation, cells were treated with the indicated drug for 18 hours and were then pulsed with bromo-deoxyuridine for an additional 6 hours. Cells were triturated to single cells and then cytospun onto microscope slides. After washing cells once with PBS, they were fixed with 4% paraformaldehyde for 15 minutes, permeabilized with 0.1% Triton/PBS, denatured with 0.1N HCl for 15 minutes, then blocked with 5% normal goat serum/PBST or 5% BSA/PBST, and incubated with anti-BrdU (Sigma) antibody at 37 degrees for one hour. After washing three times with PBST, cells were incubated for 45 minutes in the dark with the appropriate Cy-2 or Cy-3 conjugated secondary antibody (Jackson Immunoresearch). […] Multiple high power fields were photographed at random, and the percent BrdU positivity was calculated by counting first BrdU positive cells and then DAPI positive cells and dividing the former by the latter. […]

[2] = tested on: KNS42 (low-MYC glioma cell line); experiment: MTS cell growth assay; format: cell-based; conditions: KNS42, 3 days, same concentrations as SF188 and UW479
Procedure: FIG. 9: MTS assay showing sensitivity of high MYC SF188 and […] glioma cell lines and insensitivity of low-MYC KNS42 to glutamine metabolic inhibitors DON and acivicin. Cell growth was measured over 3 days at increasing concentrations of drug.
(§3) For relative cell growth assays, cells were seeded in 96-well plates in triplicate at densities of 5000 cells per well. Cell proliferation was monitored at the indicated number of days using the colorimetric CellTiter 96 MTS assay (Promega, Madison, Wis.).

[3] = tested on: D425Med; experiment: Sub-G1 (apoptotic) population by flow cytometry; format: cell-based, human
Source text: (§4) FIG. 11: Medulloblastoma cell lines expressing c-MYC and glutaminase (GLS) are sensitive to inhibitors of glutamine metabolism. c-MYC levels positively correlate with GLS levels in D425Med and D283Med (A) as indicated by western blot. The growth of D283Med (B) and D425Med (C) is inhibited when treated with DON or Acivicin as measured by MTS assay. […] Cells were fixed and stained with an anti-cleaved caspase-3 antibody followed by a Cy-3 conjugated secondary and a DAPI counterstain. Multiple images were taken of each treatment and Cy3 positive cells were counted using Adobe Photoshop. Representative images are in D. Acivicin and DON treatment cause an increase the in sub-G1 (apoptotic) population of D425Med (E) and D283Med (F) as measured by flow cytometry.

[4] = tested on: D283Med; experiment: Sub-G1 (apoptotic) population by flow cytometry; format: cell-based, human
Source text: as §4

[5] = tested on: UW228 (low-MYC medulloblastoma cell line); experiment: MTS cell growth assay; format: cell-based, human; conditions: UW228, 3 days of treatment at increasing concentrations
Procedure: (§5) FIG. 4: Growth as measured by MTS assay after 3 days of acivicin treatment at increasing doses. The low-MYC cell line, UW228 (FIG. 4A), is not sensitive to treatment with acivicin. The high-MYC cell lines, D283 (FIG. 4B) and D425 (FIG. 4C) are sensitive to acivicin, showing an inhibition of growth of approximately 50% or more at a concentration of 10 uM acivicin.
as §3
(§6) We tested this hypothesis using UW228 (low MYC) and D283 and D425 (high MYC) medulloblastoma cell lines.

[6] = tested on: hindbrain derived neurospheres transduced with oncogenes not including MYC; experiment: BrdU proliferation assay, PNET models; format: cell-based, human; conditions: 10 uM DON, no MYC
Procedure: as §1, §2

[7] = tested on: D283 (D283Med, high-MYC medulloblastoma cell line); experiment: MTS cell growth assay; format: cell-based, human; conditions: for growth as measured by MTS assay: D283 / D283Med, increasing concentrations
Procedure: as §5, §4, §3, §6

[8] = tested on: D425 (D425Med, high-MYC medulloblastoma cell line); experiment: MTS cell growth assay; format: cell-based, human; conditions: for growth as measured by MTS assay: D425 / D425Med, increasing concentrations
Procedure: as §5, §4, §3, §6

[9] = tested on: neural stem cell models of medulloblastoma; experiment: Cleaved caspase-3 staining (apoptosis); format: cell-based, human; conditions: 72 h treatment, p<0.05
Procedure: (§7) Cells were treated with acivicin or DON for 72 h. The cells were then fixed and stained with an antibody for cleaved caspase-3, followed by a Cy-3 conjugated secondary and a DAPI counterstain. Multiple images were taken of each treatment and cleaved-caspase-3 positive cells counted using Adobe Photoshop. […] Control cells were unaffected by treatment. Representative images are seen in (B and D). Images colorized with Adobe Photoshop.

[10] = tested on: Control cells (neural stem cells); experiment: Cleaved caspase-3 staining (apoptosis); format: cell-based, human; conditions: 72 h treatment
Procedure: as §7

[11] = administered orally at therapeutically effective levels; cited from earlier work
[12] = tested on: D425Med; experiment: Cleaved caspase-3 immunofluorescence (apoptosis); format: cell-based, human; conditions: n=3, p<0.05
Source text: as §4

[13] = tested on: MYC transduced cortex derived human neural stem cell PNET models; experiment: BrdU proliferation assay, PNET models; format: cell-based; conditions: FIG. 10A
Procedure: as §1, §2

[14] = tested on: Neurospheres transfected with MYC; experiment: Cell cycle analysis (sub 2N population, flow cytometry); format: cell-based, human; conditions: 3 days of treatment, propidium iodide flow cytometry
Procedure: (§8) FIG. 7: Cell cycle analysis was performed using a Guava flow cytometer following 3 days of treatment in acivicin. Neurospheres transfected with MYC show an increase in the sub 2N population following 3 days of treatment with acivicin, indicating an increase in apoptosis after treatment.
(§9) We also asked this question using human neural stem cell models of aggressive brain tumors. We compared the sensitivity of human neural stem cells transduced with a package of oncogenes that contain MYC versus those that were transformed without using MYC.

[15] = tested on: non-MYC transformed neurospheres; experiment: as above; format: cell-based, human; conditions: 3 days of treatment, propidium iodide flow cytometry
Procedure: as §8, §9

[16] = tested on: MYC-driven human neural stem cell models of medulloblastoma (cerebellar neurospheres); experiment: BrdU proliferation assay; format: cell-based
Procedure: (§10) FIG. 6: Suppression of proliferation of MYC-driven human neural stem cell models of medulloblastoma by acivicin. Two human neurosphere lines were treated with 10 uM acivicin for four days. On the fourth day, the spheres were pulsed with BrdU for 6 h. Following the pulse, the spheres were made single cells and fixed onto glass slides. Staining was performed using an anti-BrdU antibody followed by a secondary antibody conjugated to Cy3 and a DAPI counterstain. Images were taken at 400× (FIG. 6A, top panel). DAPI positive and BrdU positive (red) cells in the image were counted using Adobe Photoshop (FIG. 6A, bottom panel). An average of % positive BrdU cells was taken from three images. Error bars indicate SEM. *p=0.012.
(§11) FIG. 14: Acivicin decreases proliferation in neural stem cell models of MYC-driven medulloblastoma. Human neural stem cells derived from the developing cerebellum were transduced with lentiviral vectors coding for oncogenic elements associated with high-risk, MYC-driven medulloblastoma. SV40 was used as a control to immortalize the cells. The transduced neural stem cells were treated with acivicin for 72 h, and pulsed with bromodeoxyuridine for the final 6 hours of treatment. Cells were fixed and stained with an anti-BrdU antibody followed by a Cy-3 conjugated secondary and a DAPI counterstain. Multiple images were taken of each treatment and BrdU positive cells were counted using Adobe Photoshop. […] Representative images are in B.
(§12) For measurement of proliferation, cells were treated with the indicated drug for 18 hours and were then pulsed with bromo-deoxyuridine for an additional 6 hours. Cells were triturated to single cells and then cytospun onto microscope slides. After washing cells once with PBS, they were fixed with 4% paraformaldehyde for 15 minutes, permeabilized with 0.1% Triton/PBS, denatured with 0.1N HCl for 15 minutes, then blocked with 5% normal goat serum/PBST or 5% BSA/PBST, and incubated with anti-BrdU (Sigma) antibody at 37 degrees for one hour. After washing three times with PBST, cells were incubated for 45 minutes in the dark with the appropriate Cy-2 or Cy-3 conjugated secondary antibody (Jackson Immunoresearch). Cells were counterstained with DAPI and mounted with anti-fade (Vectastain). Multiple high power fields were photographed at random, and the percent BrdU positivity was calculated by counting first BrdU positive cells and then DAPI positive cells and dividing the former by the latter.

[17] = tested on: human neural stem cells transformed without MYC (SV40 control); experiment: BrdU proliferation assay; format: cell-based
Procedure: as §10, §11, §12

[18] = tested on: cortex derived neurospheres transduced with oncogenes not including MYC; experiment: BrdU proliferation assay, PNET models; format: cell-based, human; conditions: 10 uM acivicin, no MYC
Procedure: as §1, §2

[19] = tested on: D283Med xenografts; experiment: D283Med orthotopic and flank xenografts in nude mice; format: in vivo; conditions: IP 75 mg/kg acivicin 4 times a week, four weeks
Procedure: FIG. 13: Mice treated with Acivicin develop fewer and smaller flank tumors than untreated mice. Ten immunodeficient (nude) mice received orthotopic and flank xenografts of D283Med. Mice in the treatment group (n=5) were treated 4 times a week with an IP dose of 75 mg/kg of acivicin each time. Mice in the control group (n=5) received an IP injection of sterile PBS. After four weeks, all mice were sacrificed and brains and any flank tumors removed. 100% of the control group developed flank tumors, while only 40% of the treatment group developed flank tumors. The PBS treated mice also developed larger flank tumors (A, bars indicate mean tumor size, error bars SD).

[20] = tested on: UW228 cells engineered to express MYC (UW228-UWM13); experiment: MTS cell growth assay; format: cell-based, human; conditions: 3 days of drug treatment
Procedure: Values show mean (n=3) and error bars indicated standard deviation. FIG. 5B: The percent decrease in optical density between no drug and 50 uM acivicin. Error bars indicate SEM. *P=0.00029.
as §3
We next investigated if increasing MYC and GLS expression in a low MYC cell line could confer sensitivity to glutamine anti-metabolites.

[21] = 10 uM acivicin, four days, BrdU pulse 6 h

[N-]=[N+]=CC(=O)CC[C@H](N)C(=O)O [DON, 6-Diazo-5-oxo-L-norleucine]
sensitivity of MYC driven PNET models [1]: sensitive | reduction in growth [2]: modest reduction | sub-G1 (apoptotic) population [3]: increase | sub-G1 (apoptotic) population [4]: increase | growth as measured by MTS assay (sensitivity) [5]: relatively resistant | reduction in proliferation [6]: did not respond strongly; also recorded: slight reduction | growth as measured by MTS assay [7]: suppressed; also recorded: inhibited | growth as measured by MTS assay [8]: suppressed; also recorded: inhibited | apoptosis (cleaved-caspase-3 positive cells) [9]: significant increase in apoptosis | apoptosis (cleaved-caspase-3 positive cells) [10]: unaffected | gastrointestinal (GI) toxicity [11]: results in gastrointestinal (GI) toxicity | apoptosis (cleaved caspase-3 immunofluorescence) [12]: increase apoptosis

N[C@H](C(=O)O)[C@@H]1CC(Cl)=NO1 [acivicin, (2S)-Amino[(5S)-3-chloro-4,5-dihydro-1,2-oxazol-5-yl]ethanoic acid]
sensitivity of MYC driven PNET models [13]: sensitive | sub 2N population (apoptosis) [14]: increased apoptosis; also recorded: increase | sub 2N population (apoptosis) [15]: did not show an increase; also recorded: do not show any increase | reduction in growth [2]: modest reduction | sub-G1 (apoptotic) population [3]: increase | sub-G1 (apoptotic) population [4]: increase | growth as measured by MTS assay (sensitivity) [5]: relatively resistant; also recorded: virtually no suppression of growth; also recorded: not sensitive | reduction of proliferation (% BrdU positive cells) [16, 21]: ~30% | growth after treatment (FIG. 6) ([16]; MYC-transformed human neural stem cells): decreased growth | proliferation (BrdU positive cells) ([16]; acivicin 72 h, BrdU for the final 6 hours): significant decrease | change in proliferation (% BrdU positive cells) [17, 21]: insensitive; also recorded: no change | proliferation (BrdU positive cells) ([17]; SV40 control, acivicin 72 h, BrdU for the final 6 hours): no change | reduction in proliferation [18]: did not respond strongly; also recorded: modest reduction | flank tumor size / tumor growth ([19]; vs PBS, 75 mg/kg): markedly smaller tumors; also recorded: inhibits tumor growth | mice that developed flank tumors ([19]; control group 100%): 40% | growth as measured by MTS assay [7]: suppressed | growth as measured by MTS assay ([7]; listed as Acivicin): inhibited | inhibition at 10 µM ([7]; Homo sapiens, 72 h, D283, 10 uM acivicin, 3 days): ≥ 50% | growth as measured by MTS assay [8]: suppressed | growth as measured by MTS assay ([8]; listed as Acivicin): inhibited | inhibition at 10 µM ([8]; Homo sapiens, D425 Med, 72 h, D425, 10 uM acivicin, 3 days): ≥ 50% | apoptosis (cleaved-caspase-3 positive cells) [9]: significant increase in apoptosis | apoptosis (cleaved-caspase-3 positive cells) [10]: unaffected | growth compared to parental UW228 cells (MTS) [20]: decreased growth | apoptosis (cleaved caspase-3 immunofluorescence) [12]: increase apoptosis
